Source: US20230131899A1, “INHIBITORS OF MICROBIALLY INDUCED AMYLOID” (Axial Therapeutics, Inc., priority 2020, published 2023)
Read-outs that look alike come from different tables or passages of the source.

System: CsgA gene expression (csgBAC promoter-GFP reporter) in E. coli UTI89
Assay: In vitro live cell fluorescent reporter assay of CsgA transcription (Reporter Assay)
Type: cell-based
Details: Escherichia coli
How it was run: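 Compounds at 0.14–100 μM (1% DMSO final) incubated 20 h at 27 °C in YESCA broth with UTI89 carrying a single-copy GFP reporter under the csgBAC intergenic promoter region, inoculum OD600 0.003. Fluorescence normalized to vehicle wells gave IC50 and 50%-of-vehicle concentration; OD600 reduction >10% flagged growth impact.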

[1] = read-out: Reporter Assay Abs IC50 (μM), median Abs IC50 in the CsgA reporter assay, N/A = maximum expression reduction is <50% of control
[2] = read-out: Reporter Assay Abs IC50, activity range, class symbol
[3] = read-out: Reporter Assay Abs IC50 (activity range), median Abs IC50 in the CsgA reporter assay, class symbol

| SMILES | IC50 [1] [µM] | IC50 [2] [µM] | IC50 [3] [µM] |
| --- | --- | --- | --- |
| O=C(O)C1CN(CC2CCCC2)c2c(-c3cccc(C(F)(F)F)c3)c(Cc3cccc4ccccc34)c(Cl)c(=O)n21 (stereo not drawn) [Compound 167, 6-chloro-1-(cyclopentylmethyl)-7-(naphthalen-1-ylmethyl)-5-oxo-8-(3-(trifluoromethyl)phenyl)-1,2,3,5-tetrahydroimidazo[1,2-a]pyridine-3-carboxylic acid] | 0.6 | < 1.3 |  |
| CN1CC(C(=O)O)n2c(c(-c3cccc(C(F)(F)F)c3)c(Cc3cccc4ccccc34)c(NC3CCCC3)c2=O)S1(=O)=O (stereo not drawn) [Compound 070, 7-(cyclopentylamino)-2-methyl-8-(naphthalen-1-ylmethyl)-6-oxo-9-(3-(trifluoromethyl)phenyl)-3,4-dihydro-2H,6H-pyrido[1,2-e][1,2,5]thiadiazine-4-carboxylic acid 1,1-dioxide] | 2.3 |  | 1.3 to 4.5 |
| CCCN1CC(C(=O)O)n2c(c(-c3cccc(C(F)(F)F)c3)c(Cc3cccc4ccccc34)c(O)c2=O)S1(=O)=O (stereo not drawn) [Compound 141, 7-hydroxy-8-(naphthalen-1-ylmethyl)-6-oxo-2-propyl-9-(3-(trifluoromethyl)phenyl)-3,4-dihydro-2H,6H-pyrido[1,2-e][1,2,5]thiadiazine-4-carboxylic acid 1,1-dioxide] | 2.7 | 1.3 to 4.5 |  |
| O=C(O)C1CN(C[C@@H](O)CO)S(=O)(=O)c2c(-c3cccc(C(F)(F)F)c3)c(Cc3cccc4ccccc34)cc(=O)n21 (mixture of isomers) [Compound 065b, 2-((R)-2,3-dihydroxypropyl)-8-(naphthalen-1-ylmethyl)-6-oxo-9-(3-(trifluoromethyl)phenyl)-3,4-dihydro-2H,6H-pyrido[1,2-e][1,2,5]thiadiazine-4-carboxylic acid 1,1-dioxide] | 18.1 |  | > 10 |
| O=C(O)C1n2c(c(-c3cccc(C(F)(F)F)c3)c(Cc3cccc4ccccc34)nc2=O)SC12CCCC2 (stereo not drawn) [Compound 053, 7′-(naphthalen-1-ylmethyl)-5′-oxo-8′-(3-(trifluoromethyl)phenyl)-3′H,5′H-spiro[cyclopentane-1,2′-thiazolo[3,2-c]pyrimidine]-3′-carboxylic acid] | 16.3 |  | > 10 |
| O=C(O)C1CN(Cc2ccncc2)c2c(-c3cccc(C(F)(F)F)c3)c(Cc3cccc4ccccc34)c(Cl)c(=O)n21 (stereo not drawn) [Compound 174, 6-chloro-7-(naphthalen-1-ylmethyl)-5-oxo-1-(pyridin-4-ylmethyl)-8-(3-(trifluoromethyl)phenyl)-1,2,3,5-tetrahydroimidazo[1,2-a]pyridine-3-carboxylic acid] | 4.4 | 1.3 to 4.5 |  |
| NC(=O)c1c(Cc2cccc3ccccc23)c(-c2cccc(C(F)(F)F)c2)c2n(c1=O)C(C(=O)O)CN(C1CCCC1)S2(=O)=O (stereo not drawn) [Compound 176, 7-carbamoyl-2-cyclopentyl-8-(naphthalen-1-ylmethyl)-6-oxo-9-(3-(trifluoromethyl)phenyl)-3,4-dihydro-2H,6H-pyrido[1,2-e][1,2,5]thiadiazine-4-carboxylic acid 1,1-dioxide] | 1.3 | 1.3 to 4.5 |  |
| O=C(O)C1CSc2c(-c3cccc(C(F)(F)F)c3)c(C(F)(F)c3cccc4ccccc34)cc(=O)n21 (stereo not drawn) [Compound 073, 7-(difluoro(naphthalen-1-yl)methyl)-5-oxo-8-(3-(trifluoromethyl)phenyl)-2,3-dihydro-5H-thiazolo[3,2-a]pyridine-3-carboxylic acid] | 6 |  | 4.6 to 10 |
| O=C(O)C1CN(Cc2cccnc2)c2c(-c3cccc(C(F)(F)F)c3)c(Cc3cccc4ccccc34)c(Cl)c(=O)n21 (stereo not drawn) [Compound 169, 6-chloro-7-(naphthalen-1-ylmethyl)-5-oxo-1-(pyridin-3-ylmethyl)-8-(3-(trifluoromethyl)phenyl)-1,2,3,5-tetrahydroimidazo[1,2-a]pyridine-3-carboxylic acid] | 3.8 | 1.3 to 4.5 |  |
